Measured values as given in US20070264250A1, “Composition for Skin-Whitening and Wrinkle-Care” (priority 2004, published 2007).

Assay type: physicochemical
Settings: 1 mM, pH 7
Description: Stabilities of 2-o-α-glucopyranosyl-L-ascorbic acid and ascorbic acid in an aqueous solution were compared.
(1) 2-o-α-glucopyranosyl-L-ascorbic acid, (2) ascorbic acid, and (3) 2-o-α-glucopyranosyl-L-ascorbic acid and 10 units of α-glucosidase were added to 50 mM potassium phosphate buffer solution (pH 7.0) so that a concentration of each component was 1 mM, to produce test groups. The test groups were stored at 37° C., sampled every day for 5 days, and quantitatively analyzed.
The quantitative analysis (HPLC analysis) for test materials was conducted under conditions described in the following Table 1. An amount of remaining 2-o-α-glucopyranosyl-L-ascorbic acid or ascorbic acid which was not degraded was reduced by an initial concentration, and stability was evaluated using the ratio.
However, almost all vitamin C was degraded within 2 days. […] As well, it was confirmed that converted vitamin C was immediately degraded.

O=C1O[C@H]([C@@H](O)CO)C(O)=C1O [vitamin C, ascorbic acid]
time within which almost all was degraded: ≤ 2 days
